Data set [1] in a line: Stability of cyclization product 29. Format: physicochemical. As to the method: To a mixture of 28 (70 mg, 0.067 mmol, 1.0 eq) and anisole (0.1 mL) was added TFA (1.0 mL). the resulting mixture was stirred for 15 min at room temperature. The TFA was evaporated and coevaporated with CH2 Cl2 to dryness. The resulting residue was dried on vacuo for 2 h and triturated with ethyl ether to give a white solid. This white solid was dissolved in THF (1.5 mL). To this solution was added triethylamine (20 μL, 0.14 mmol, 2.0 eq). After stirring 10 min., the solvent was evaporated and the resulting residue was immediately purified by PTLC (silica gel, CH2 Cl2 : EtOAc: MeOH, 4:1:0.5) to give 40 mg (67%) of 29 as a white solid. This product was unstable with a tendency to form a bicycle by-product (t1/2 is about 1 day) and was used for the next step immediately. ^1 H NMR (300 MHz, CD3 Cl/D2 O vs TMS): δ1.62 (4H, m); 2.45 (2H, m); 2.76/2.78 (3H, s); 3.32 (1H, m); 3.70 (1H, m); 3.93 (4H, m); 5.17 (6H, m); 7.32 (20H, m) ppm. IR (NaCl, film): 3381, 3258, 2934, 1765, 1713, 1646, 1608, 1504, 1452, 1252, 1186, 1096, 1063 cm^-1. MS (ES+): Calcd. for (C45 H49 N9 O11 +H)=892.4. Found (M+H)=892.4; (M+H-108)=784.3.

For data set [2] the following is noted: basic aqueous solutions; hydrolytic opening of six-membered ring; cited from earlier work.
Data set [3] concerns Enterococcus faecium ATCC 35667. The experiment in a line: MIC, broth microdilution (NCCLS), E. faecium ATCC 35667. Format: cell-based. The following applies: ATCC35667, E. faecium ATCC 35667, reference strain, 35° C., 20 h, read-out: Minimal Inhibitory Concentration (MIC). As to the method: (§1) Test compounds were assayed against Staphylococcus aureus FDA 209P by the 10 fold agar disc diffusion assay on BHI-plates at pH=7 and pH=9 in accordance with the procedure from the National Committee for Clinical Laboratory Standards 1989. Susceptibility testing. A panel of 16 bacteria was used to evaluate the antimicrobial activity of the compounds (Table 2). The MIC of each antimicrobial agent was determined using a microdilution method according to NCCLS standards^1. Serial twofold dilutions of antibiotics were prepared in Mueller-Hinton broth (Difco Laboratories, Detroit, Mich.). Bacteria were grown to early log phase at 35° C. (1 hours) in Mueller-Hinton broth and cultures were diluted to achieve a final inoculum of 5×10^5 CFU per ml. Microtiter plates were incubated at 35° C. for 20 h and then were read using a Thermomax microplate reader (Molecular Devices, Sunnyvale, Calif.) and a microtiter plate reading mirror. The MIC was defined as the lowest concentration of antibiotic which inhibited the development of visible growth at the end of the incubation period. The standard reference strains were Staphyloccocus aureus ATCC […], Enterococcus faecalis ATCC 29212, E. faecium ATCC 35667, Escherichia coli ATCC 25922, and Pseudomonas aeruginosa ATCC 27853. Imipenem and vancomycin were used as antibiotic controls and values for reference strains were in accordance with the NCCLS.
(§2) Enterococcus ATCC Reference strain

The subject of data set [4] is Staphylococcus haemolyticus UA281. The experiment in a line: MIC, broth microdilution (NCCLS), S. haemolyticus UA281. It counts as cell-based. Conditions: S. haemolyticus UA281, methicillin resistant, 35° C., 20 h, read-out: Minimal Inhibitory Concentration (MIC). As to the method: as §1
(§3) Staphylococcus Methicillin
haemolyticus UA281 resistant
Background: Dilution methods test growth across graded concentrations, often in twofold steps.

Data set [5] concerns Enterococcus faecalis ATCC 29212. The experiment in a line: MIC, broth microdilution (NCCLS), E. faecalis ATCC 29212. The following applies: ATCC29212, E. faecalis ATCC 29212, reference strain, 35° C., 20 h, read-out: Minimal Inhibitory Concentration (MIC). It counts as cell-based. The protocol: as §1, §2
For data set [6], the system named is Staphylococcus aureus COL. Briefly: MIC, broth microdilution (NCCLS), S. aureus COL. It counts as cell-based. The following applies: S. aureus COL, methicillin resistant, β-lactamase negative, 35° C., 20 h, read-out: Minimal Inhibitory Concentration (MIC). As to the method: as §1, §3
aureus COL resistant, β-

Data set [7] relates to Staphylococcus aureus PC1. Briefly: MIC, broth microdilution (NCCLS), S. aureus PC1. Format: cell-based. The following applies: S. aureus PC1, Type A βlactamase hyperproducer, 35° C., 20 h, read-out: Minimal Inhibitory Concentration (MIC). As to the method:
as §1
Staphylococcus Type A βlactamase
aureus PC1 hyperproducer

Data set [8] has as its system Staphylococcus aureus sa201. The experiment in a line: MIC, broth microdilution (NCCLS), S. aureus sa201. Conditions: S. aureus sa201, clinical isolate Spain, methicillin resistant, β-lactamase positive, 35° C., 20 h, read-out: Minimal Inhibitory Concentration (MIC). It counts as cell-based. As to the method: as §1
Staphylococcus Clinical isolate,
aureus sa201 Spain resistant, β-

In data set [9] the test system is Enterococcus faecium BM4147. The experiment in a line: MIC, broth microdilution (NCCLS), E. faecium BM4147. Format: cell-based. Conditions: E. faecium BM4147, vancomycin resistant, vanA, 35° C., 20 h, read-out: Minimal Inhibitory Concentration (MIC). As to the method: as §1
(§4) Enterococcus Vancomycin
faecium BM4147 resistant, vanA

Data set [10] relates to Staphylococcus aureus ATCC 33593. Briefly: MIC, broth microdilution (NCCLS), S. aureus ATCC 33593. Conditions: ATCC33593, S. aureus ATCC 33593, methicillin resistant, β-lactamase positive, 35° C., 20 h, read-out: Minimal Inhibitory Concentration (MIC). It counts as cell-based. As to the method: as §1
Staphylococcus ATCC Methicillin
aureus ATCC 33593 resistant, β-

Data set [11] has as its system Enterococcus faecalis V583. Briefly: MIC, broth microdilution (NCCLS), E. faecalis V583. It counts as cell-based. The following applies: E. faecalis V583, vancomycin resistant, vanB, 35° C., 20 h, read-out: Minimal Inhibitory Concentration (MIC). As to the method:
as §1, §4
faecalis V583 resistant, vanB

The subject of data set [12] is Enterococcus faecium efm040. Briefly: MIC, broth microdilution (NCCLS), E. faecium efm040. The following applies: E. faecium efm040, clinical isolate U.S.A., ampicillin resistant, 35° C., 20 h, read-out: Minimal Inhibitory Concentration (MIC). Format: cell-based. As to the method: as §1
Enterococcus Clinical isolate,
faecium efm040 U.S.A. resistant

For data set [13], the system named is Staphylococcus aureus ATCC 29213. The experiment in a line: MIC, broth microdilution (NCCLS), S. aureus ATCC 29213. Conditions: ATCC29213, S. aureus ATCC 29213, reference strain, 35° C., 20 h, read-out: Minimal Inhibitory Concentration (MIC). Format: cell-based. As to the method:
as §1
Staphylococcus ATCC Reference strain

For another data set, the system named is Staphylococcus aureus 76. Briefly: MIC, broth microdilution (NCCLS), S. aureus 76. Format: cell-based. The following applies: Staphylococcus aureus; S. aureus 76, methicillin resistant, β-lactamase positive; 35° C., 20 h; read-out: Minimal Inhibitory Concentration (MIC). As to the method: as §1, §3
Data set [14] deals with Staphylococcus aureus sa ATCC 13709. The experiment in a line: MIC, broth microdilution (NCCLS), S. aureus sa ATCC 13709. It counts as cell-based. Conditions: ATCC13709, S. aureus sa ATCC 13709, Smith strain, 35° C., 20 h, read-out: Minimal Inhibitory Concentration (MIC). As to the method:
as §1

Data set [15] concerns Pseudomonas Aeruginosa ATCC 27853. The experiment in a line: MIC, broth microdilution (NCCLS), P. aeruginosa ATCC 27853. Format: cell-based. Conditions: ATCC27853, P. aeruginosa ATCC 27853, reference strain, 35° C., 20 h, read-out: Minimal Inhibitory Concentration (MIC). The protocol: as §1
In data set [16] the test system is Escherichia coli ATCC 25922. Briefly: MIC, broth microdilution (NCCLS), E. coli ATCC 25922. Format: cell-based. Conditions: ATCC25922, E. coli ATCC 25922, reference strain, 35° C., 20 h, read-out: Minimal Inhibitory Concentration (MIC). The protocol:
as §1

The test system of data set [17] is Staphylococcus aureus COL8A. The experiment in a line: MIC, broth microdilution (NCCLS), S. aureus COL8A. Format: cell-based. The following applies: 20 h, read-out: Minimal Inhibitory Concentration (MIC). As to the method: as §1, §3
aureus COL8A susceptible, […]

Data set [18] concerns Gram-positive and Gram-negative bacteria. Conditions: S- versus R-configuration in the heterocyclic portion; cited from earlier work.
For data set [19] the following is noted: cited from earlier work.

≈ marks a conversion by molar mass, not a printed value.

On to `CN(C(=O)C[C@H](CCCN(C(=N)NC(=O)OCc1ccccc1)C(=O)OCc1ccccc1)NC(=O)OCc1ccccc1)C1CNC(NC(=O)NC(=O)OCc2ccccc2)=NC1=O` (some centres unmarked) [Compound 29], for which the “t1/2 (tendency to form a bicycle by-product)” value in [1] is “about 1 day”.
Regarding `CN(C(=O)C[C@@H](N)CCCNC(=N)N)[C@@H]1CNC(NC(N)=O)=NC1=O` [TAN-1057B], the “loss of antibacterial activity in basic aqueous solutions” value in data set [2] is given as “gradually lost their antibacterial activities in basic aqueous solutions”.
On to `COC(=O)NC1=NC(=O)C(N(C)C(=O)C[C@@H](N)CCCNC(=N)N)CN1` (some centres unmarked) [Compound 73c, 3S,5'S/R-3-amino-6-[(aminoiminomethyl)amino]-N-(2-methoxycarbonylamino-1,4,5,6-tetrahydro-4-oxo-5-pyrimidinyl)-N-methyl-hexanamide], for which the MIC in data set [3] came out at 128 µg/mL (≈ 346 µM); in data set [4], 256 µg/mL (≈ 691 µM); in data set [5], 64 µg/mL (≈ 173 µM); in data set [6], 64 µg/mL (≈ 173 µM); in [7] it was 32 µg/mL (≈ 86.4 µM); in data set [8], 64 µg/mL (≈ 173 µM). Besides, the MIC in data set [9] is 64 µg/mL (≈ 173 µM); in data set [10] it was 64 µg/mL (≈ 173 µM); in data set [11] it was 64 µg/mL (≈ 173 µM); in [12], over 256 µg/mL; in data set [13], 64 µg/mL (≈ 173 µM); with Staphylococcus aureus 76, 64 µg/mL (≈ 173 µM). Also, the MIC in data set [14] was 32 µg/mL (≈ 86.4 µM); in data set [15], over 256 µg/mL; in data set [16], over 256 µg/mL; in [17], 64 µg/mL (≈ 173 µM).
In the case of `CN1C(=O)C[C@H](CCCNC(=N)N)NC(=O)[C@@H]1CNC(=N)NC(N)=O` [TAN-1057D], the “relative antibacterial activity of stereoisomers” value in data set [18] is “more active than TAN-1057 B and C”. Also, the “conversion upon standing in water” value in [19] is “rapidly convert to a mixture of TAN-1057A/B upon standing in water”.

The values above are taken from patent US6162925A, “Antibiotic for methicillin resistant bacteria” (Research Corporation Tech., Inc., priority 1999, dated 2000).
